This passage reports IC50 results from patent publication US20230322770A1, “SUBSTITUTED HETEROARYL COMPOUNDS USEFUL AS INHIBITORS OF TLR9” (BRISTOL-MYERS SQUIBB COMPANY, priority 2020, published 2023).

Type in all cases: cell-based
For one test, the target named is T1, human TLR9 (Homo sapiens, UniProt Q9NR96).
T1 construct: host or cells: HEK-Blue cells (HEK293-derived reporter line)
T1 sequence (Q9NR96 26-1032): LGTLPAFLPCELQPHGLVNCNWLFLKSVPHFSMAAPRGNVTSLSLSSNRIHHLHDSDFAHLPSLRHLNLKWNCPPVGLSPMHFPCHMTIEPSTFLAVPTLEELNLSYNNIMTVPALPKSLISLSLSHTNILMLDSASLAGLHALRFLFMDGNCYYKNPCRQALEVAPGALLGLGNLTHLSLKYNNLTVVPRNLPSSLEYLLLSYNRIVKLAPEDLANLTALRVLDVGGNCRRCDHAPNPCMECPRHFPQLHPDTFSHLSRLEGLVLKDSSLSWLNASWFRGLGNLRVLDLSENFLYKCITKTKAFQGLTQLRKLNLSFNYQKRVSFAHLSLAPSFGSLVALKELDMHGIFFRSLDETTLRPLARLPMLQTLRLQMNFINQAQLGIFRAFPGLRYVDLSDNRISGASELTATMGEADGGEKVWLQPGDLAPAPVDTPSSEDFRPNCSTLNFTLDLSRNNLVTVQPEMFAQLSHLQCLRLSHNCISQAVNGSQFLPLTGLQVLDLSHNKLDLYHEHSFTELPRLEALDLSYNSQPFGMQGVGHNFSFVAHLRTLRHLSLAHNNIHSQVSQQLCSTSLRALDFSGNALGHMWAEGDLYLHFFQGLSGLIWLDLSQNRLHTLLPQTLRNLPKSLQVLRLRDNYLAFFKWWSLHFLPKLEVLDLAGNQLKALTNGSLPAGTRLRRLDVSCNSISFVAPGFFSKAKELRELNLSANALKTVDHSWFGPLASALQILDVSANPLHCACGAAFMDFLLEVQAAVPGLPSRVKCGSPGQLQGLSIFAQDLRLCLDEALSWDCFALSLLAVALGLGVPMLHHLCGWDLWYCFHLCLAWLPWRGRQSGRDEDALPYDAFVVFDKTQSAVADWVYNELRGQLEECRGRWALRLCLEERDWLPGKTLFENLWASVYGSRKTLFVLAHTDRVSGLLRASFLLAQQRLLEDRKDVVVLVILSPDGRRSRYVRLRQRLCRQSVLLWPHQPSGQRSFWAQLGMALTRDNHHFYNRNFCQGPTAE
In words: TLR9 inhibition reporter assay (HEK-Blue cells, SEAP reporter). The following applies: HEK-Blue cells overexpressing human TLR9; stimulated with ODN2006 5 nM; SEAP after 22 hour incubation. Here is the method: (§1) TLR7/8/9 Inhibition Reporter Assays
(§2) HEK-Blue™-cells (Invivogen) overexpressing human TLR7, TLR8 or TLR9 receptors were used for screening inhibitors of these receptors using an inducible SEAP (secreted embryonic alkaline phosphatase) reporter gene under the control of the IFN-β minimal promoter fused to five NF-κB and AP-1-binding sites. Briefly, cells are seeded into Greiner 384 well plates (15000 cells per well for TLR7, 20,000 for TLR8 and 25,000 for TLR9) and then treated with test compounds in DMSO to yield a final dose response concentration range of 0.05 nM-50 μM. After a 30 minute compound pre-treatment at room temperature, the cells are then stimulated with a TLR7 ligand (gardiquimod at a final concentration of 7.5 μM), TLR8 ligand (R848 at a final concentration of 15.9 μM) or TLR9 ligand (ODN2006 at a final concentration of 5 nM) to activate NF-κB and AP-1 which induce the production of SEAP. After a 22 hour incubation at 37° C., 5% CO2, SEAP levels are determined with the addition of HEK-Blue™ Detection reagent (Invivogen), a cell culture medium that allows for detection of SEAP, according to manufacturer's specifications. The percent inhibition is determined as the % reduction in the HEK-Blue signal present in wells treated with agonist plus DMSO alone compared to wells treated with a known inhibitor.
Background: Reporter assays use an easily measured gene product as a stand-in for the process of interest.

The target in the next test is T2, human TLR8 (Homo sapiens, UniProt Q9NR97).
T2 construct: host or cells: HEK-Blue cells (HEK293-derived reporter line)
T2 sequence (Q9NR97 27-1041): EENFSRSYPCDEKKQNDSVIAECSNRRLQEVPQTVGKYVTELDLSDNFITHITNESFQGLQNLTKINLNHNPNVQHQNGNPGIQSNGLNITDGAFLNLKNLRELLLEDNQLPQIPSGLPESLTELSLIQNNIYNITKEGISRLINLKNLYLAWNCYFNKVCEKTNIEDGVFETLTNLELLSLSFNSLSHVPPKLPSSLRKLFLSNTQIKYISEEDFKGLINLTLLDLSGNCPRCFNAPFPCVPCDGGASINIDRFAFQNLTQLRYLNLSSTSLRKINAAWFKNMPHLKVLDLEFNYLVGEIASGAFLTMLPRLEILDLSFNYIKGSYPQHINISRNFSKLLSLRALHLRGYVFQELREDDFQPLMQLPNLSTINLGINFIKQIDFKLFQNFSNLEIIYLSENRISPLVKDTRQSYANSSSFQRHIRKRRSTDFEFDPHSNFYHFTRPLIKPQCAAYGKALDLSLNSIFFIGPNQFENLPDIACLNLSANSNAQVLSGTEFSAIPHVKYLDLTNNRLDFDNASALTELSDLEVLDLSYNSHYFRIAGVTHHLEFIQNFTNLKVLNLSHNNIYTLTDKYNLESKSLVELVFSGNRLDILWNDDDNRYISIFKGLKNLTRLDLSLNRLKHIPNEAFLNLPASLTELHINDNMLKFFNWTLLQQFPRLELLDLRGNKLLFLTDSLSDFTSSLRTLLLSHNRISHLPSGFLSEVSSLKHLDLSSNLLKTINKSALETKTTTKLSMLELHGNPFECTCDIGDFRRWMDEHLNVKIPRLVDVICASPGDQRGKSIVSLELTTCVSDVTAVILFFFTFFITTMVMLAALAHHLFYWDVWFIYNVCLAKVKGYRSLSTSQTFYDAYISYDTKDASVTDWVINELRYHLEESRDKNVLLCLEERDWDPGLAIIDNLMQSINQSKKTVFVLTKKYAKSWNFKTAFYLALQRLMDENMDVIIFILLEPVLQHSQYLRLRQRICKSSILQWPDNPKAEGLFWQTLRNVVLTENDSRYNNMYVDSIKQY
In words: TLR8 inhibition reporter assay (HEK-Blue cells, SEAP reporter). The following applies: HEK-Blue cells overexpressing human TLR8; stimulated with R848 15.9 μM; SEAP after 22 hour incubation. The procedure: as §1, §2

Another test concerns the target T3, human TLR7 (Homo sapiens, UniProt Q9NYK1).
T3 construct: host or cells: HEK-Blue cells (HEK293-derived reporter line)
T3 sequence (Q9NYK1 27-1049): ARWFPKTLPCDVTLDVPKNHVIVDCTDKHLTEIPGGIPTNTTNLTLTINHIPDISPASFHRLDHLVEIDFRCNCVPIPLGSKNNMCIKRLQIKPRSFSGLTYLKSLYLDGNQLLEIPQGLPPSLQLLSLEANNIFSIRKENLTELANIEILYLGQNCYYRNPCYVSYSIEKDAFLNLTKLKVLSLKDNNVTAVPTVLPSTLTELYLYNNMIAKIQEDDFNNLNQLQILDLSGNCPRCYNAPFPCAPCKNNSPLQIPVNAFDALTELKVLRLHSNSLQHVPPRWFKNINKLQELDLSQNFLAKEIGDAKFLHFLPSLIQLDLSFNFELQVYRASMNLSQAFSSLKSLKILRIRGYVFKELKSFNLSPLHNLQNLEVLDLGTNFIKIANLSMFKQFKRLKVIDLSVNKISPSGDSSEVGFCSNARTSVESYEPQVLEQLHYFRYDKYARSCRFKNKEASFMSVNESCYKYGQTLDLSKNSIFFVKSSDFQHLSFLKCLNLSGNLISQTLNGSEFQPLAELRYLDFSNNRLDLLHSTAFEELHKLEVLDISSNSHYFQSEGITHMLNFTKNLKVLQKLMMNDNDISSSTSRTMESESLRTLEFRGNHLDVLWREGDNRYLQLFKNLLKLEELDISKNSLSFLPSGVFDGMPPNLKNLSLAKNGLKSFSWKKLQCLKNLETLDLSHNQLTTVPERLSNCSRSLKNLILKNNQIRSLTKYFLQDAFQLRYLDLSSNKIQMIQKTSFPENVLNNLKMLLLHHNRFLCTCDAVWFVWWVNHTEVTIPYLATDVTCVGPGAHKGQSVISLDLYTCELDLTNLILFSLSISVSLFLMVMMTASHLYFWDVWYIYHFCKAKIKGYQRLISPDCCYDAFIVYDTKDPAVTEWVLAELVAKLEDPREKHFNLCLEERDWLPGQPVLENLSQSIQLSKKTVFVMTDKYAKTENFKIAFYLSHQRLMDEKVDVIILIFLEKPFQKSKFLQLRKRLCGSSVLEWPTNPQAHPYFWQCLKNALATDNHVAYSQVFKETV
In words: TLR7 inhibition reporter assay (HEK-Blue cells, SEAP reporter). The following applies: HEK-Blue cells overexpressing human TLR7; stimulated with gardiquimod 7.5 μM; SEAP after 22 hour incubation. The procedure: as §1, §2

The IC50 is the concentration that inhibits the measured activity by half.

Regarding `CC(C)N1CCN(c2ccc(-c3cnc4cc(-c5ccc(S(C)(=O)=O)cc5)n(C)c4c3)cc2)CC1` [Example 2, 6-(4-(4-Isopropylpiperazin-1-yl)phenyl)-1-methyl-2-(4-(methylsulfonyl)phenyl)-1H-pyrrolo[3,2-b]pyridine], the IC50 against human TLR9 worked out at 139 nM; against human TLR8 it was 7.6 µM; against human TLR7 it was 2.7 µM.
Take `Cn1c(-c2ccc(S(C)(=O)=O)cc2)cc2ncc(-c3ccc(CN4CCC(C)(O)CC4)cc3)cc21` [Example 22]: the IC50 against human TLR9 stood at 339 nM; on human TLR8 it was 14.6 µM; against human TLR7, 7.9 µM.
Turning to `CC(C)N1C[C@@H](C)N(c2ccc(-c3cnc4cc(-c5ccc(S(C)(=O)=O)cc5)n(C)c4c3)cc2)[C@@H](C)C1` [Example 33], the figures for the IC50 against human TLR9, at human TLR8 and against human TLR7 were 383 nM, 4.2 µM and 3.8 µM, respectively.
Consider `CC(C)N1CCN(c2ccc(-c3cc4nc(-c5ccc(S(C)(=O)=O)cc5)cc-4n(C)c3)cc2)CC1` [Example 3, 6-(4-(4-isopropylpiperazin-1-yl)phenyl)-4-methyl-2-(4-(methylsulfonyl)phenyl)-4H-pyrrolo[3,2-b]pyridine], for which the IC50 on human TLR9 was found to be 18 nM; on human TLR8, 11.1 µM; against human TLR7, 9.7 µM.
For `CC(C)N1C2CCC1CN(c1ccc(-c3cnc4cc(-c5ccc(S(C)(=O)=O)cc5F)n(C)c4c3)cc1)C2` [Example 43], the values for the IC50 on human TLR9, against human TLR8 and on human TLR7 were 292 nM, 7.8 µM and over 50 µM, respectively.
On the same counts, the results for `Cn1c(-c2ccc(S(C)(=O)=O)cc2)cc2ncc(-c3ccc(CN4CCN(CC(C)(C)O)CC4)cc3)cc21` [Example 21] are 206 nM, 8.1 µM and 9.6 µM.
Consider `CC(C)N1CCN(c2ccc(-c3cnc4cc(-c5ccc(S(C)(=O)=O)cc5F)n(C)c4c3)cc2)CC1` [Example 41], for which the values for the IC50 against human TLR9, on human TLR8 and on human TLR7 were 157 nM, 1.6 µM and 10 µM, respectively.
Turning to `CC(C)CN1[C@@H]2CC[C@H]1CC(N1CCC(c3cnc4cc(-c5ccc(S(C)(=O)=O)cc5)n(C)c4c3)CC1)C2` (stereo partly drawn) [Example 36], the IC50 is 22 nM against human TLR9, over 50 µM on human TLR8 and 10.5 µM against human TLR7.
On the same counts, the results for `CC(C)N1CCN(Cc2ccc(-c3cnc4cc(-c5ccc(S(C)(=O)=O)cc5)n(C)c4c3)cc2)CC1` [Example 23] are 69 nM, 23.2 µM and over 50 µM.
The matching figures for `CCN1CCN(Cc2ccc(-c3cnc4cc(-c5ccc(S(C)(=O)=O)cc5)n(C)c4c3)cc2)CC1` [Example 25]: 212 nM, 43.8 µM and over 50 µM.
As for `CC(C)N1CCN(c2ccc(-c3cnc4cc(-c5ccc(S(C)(=O)=O)cc5)n(C)c4c3)cc2)C[C@H]1C` [Example 32], the IC50 against human TLR9 turned out to be 243 nM; on human TLR8, 15.1 µM; on human TLR7 it was 11.4 µM.
Take `CN(C)C1CCN(Cc2ccc(-c3cnc4cc(-c5ccc(S(C)(=O)=O)cc5)n(C)c4c3)cc2)CC1` [Example 24]: the values for the half-inhibitory concentration (IC50) at human TLR9, on human TLR8 and on human TLR7 were 14 nM, over 50 µM and 4.9 µM, respectively.
On the same counts, the results for `CC(C)N1CCN(c2ccc(-c3cnc4cc(-c5ccc(S(C)(=O)=O)cc5)n(C)c4c3)cc2)C[C@@H]1C` [Example 29] are 722 nM, 2.3 µM and 3.3 µM.
The matching figures for `CC(C)CN1[C@@H]2CC[C@H]1C[C@@H](N1CCC(c3cnc4cc(-c5ccc(S(=O)(=O)C6CC6)cc5)n(C)c4c3)CC1)C2` [Example 37, 2-(4-cyclopropylsulfonylphenyl)-1-methyl-6-[1-[rac-(1S,5R)-8-isobutyl-8-azabicyclo[3.2.1]octan-3-yl]-4-piperidyl]pyrrolo[3,2-b]pyridine]: 410 nM, over 50 µM and 1.1 µM.
On the same counts, the results for `Cn1c(-c2ccc(S(C)(=O)=O)cc2)cc2ncc(-c3ccc(N4CCNCC4)cc3)cc21` [Example 20, 1-Methyl-2-(4-(methylsulfonyl)phenyl)-6-(4-(piperazin-1-yl)phenyl)-1H-pyrrolo[3,2-b]pyridine] are 171 nM, 2.4 µM and 2 µM.
